# Assay results as given in patent US20240252594A1, “COMBINATION THERAPY FOR NEURODEGENERATIVE DISEASES” (ALETA NEUROSCIENCE, LLC, priority 2021, published 2024).
# Assays:
# [1] = test system: CXCL1/GROα mediated neuroinflammation in microglial cells; experiment: LPS/ATP-induced neuroinflammation in microglia: CXCL1/GROα secretion (Luminex); type: cell-based, human; conditions: for CXCL1/GROα in supernatant, Mean ± S.D. / CXCL1/GROα in supernatant, Replicate 1 / CXCL1/GROα in supernatant, Replicate 2 / CXCL1/GROα in supernatant, Replicate 3: LPS (100 ng/mL) + ATP (5 mM), six hours after LPS
# From the text: (§1) In addition to the studies discussed above assessing activity of combinations of drugs on MPP+-induced neurodegeneration toxicity on human dopaminergic neurons as well as on a human iPSC cell line harboring a triplication mutation in alpha-synuclein gene, and measuring neuronal growth, neurite branching and neurofilament heavy chain, we also assessed combinations of drugs in reducing lipopolysaccharide (LPS, from E. coli)-induced neuroinflammation in human microglia cells.
# (§2) Lipopolysaccharides are important outer membrane components of gram-negative bacteria such as E. coli and Salmonella. They are large amphipathic glycoconjugates that typically consist of a lipid domain (hydrophobic) attached to a core oligosaccharide and a distal polysaccharide. LPS binds to Toll-like receptor 4 (TLR4) and activates microglia(98) which in turn increases secretion of pro-inflammatory cytokines such as interleukin-6 (IL-6), tumor necrosis factor-α (TNF-α), and CXCL1/GROα.
# (§3) Microglia cells were obtained from an iCell® Microglia kit, 01279 (Catalogue N^o R1131) from FUJIFILM Cellular Dynamics. We followed the manufacturer's protocol for activation of the microglial cells with LPS/ATP to subsequently measure the effect of the study drugs on pro-inflammatory cytokines IL-6, TNF-α and CXCL1/GROα.
# (§4) All cell culture procedures were performed in aseptic conditions, under a laminar flow hood. Microglia were thawed and cultured following the provider's instructions. The microglia were plated at 50,000 cells per well of a Corning Primaria 96 well plate (Ref N^o 353872) in 100 μL of growth medium. Cells were incubated at 37° C./5% CO2 in a humidified cell culture incubator.
# (§5) Three days after cell plating, the test or reference substances (25 μL of solutions at 5×) were applied 1 hour before LPS and ATP stimulation.
# (§6) One hour later, 12.5 μL of test or reference substances were added again at 2× concentrated followed by 12.5 μL of LPS at 12× concentration. Fifty microliters of ATP were introduced at 4× concentration, 5 h 30 min after incubation with LPS.
# (§7) Six hours after LPS incubation, the supernatant of each well was collected and centrifugated at 1000 g for 10 minutes to remove the cells and debris.
# (§8) Fifty microliters of supernatant from NT and LPS+ATP-treated wells were used to determine cytokine secretion (IL-6, TNF-α, CXCL1/GROα) by Luminex platform according to the provider's instructions. Samples were diluted prior to the assay to fit within the standard range if needed. Three wells were tested per each condition (Table 11). Cytokines levels in the supernatant were expressed in pg/mL. The data was analyzed using a One-Way ANOVA followed by Bonferroni test.
# IL-1B = experiment: LPS/ATP-induced neuroinflammation in microglia: IL-1B; type: cell-based, human; conditions: compared with […] distilled water in presence of LPS and ATP
# [2] = test system: TNF-α mediated neuroinflammation in microglial cells; experiment: LPS/ATP-induced neuroinflammation in microglia: TNF-α secretion (Luminex); type: cell-based, human; conditions: for TNF-α in supernatant, Mean ± S.D. / TNF-α in supernatant, Replicate 1 / TNF-α in supernatant, Replicate 2 / TNF-α in supernatant, Replicate 3: LPS (100 ng/mL) + ATP (5 mM), six hours after LPS
# From the text: as §1, §2, §3, §4, §5, §6, §7, §8
# [3] = test system: IL-6 mediated inflammation in microglial cells; experiment: LPS/ATP-induced neuroinflammation in microglia: IL-6 secretion (Luminex); type: cell-based, human; conditions: for IL-6 in supernatant, Mean ± S.D. / IL-6 in supernatant, Replicate 1 / IL-6 in supernatant, Replicate 2 / IL-6 in supernatant, Replicate 3: LPS (100 ng/mL) + ATP (5 mM), six hours after LPS
# From the text: as §1, §2, §3, §4, §5, §6, §7, §8
# [4] = test system: human dopaminergic neurons (iCell DopaNeurons); experiment: MPP+-induced neurotoxicity: neurite outgrowth (neurite length, branch points) on iCell DopaNeurons; type: cell-based; conditions: for Neurite length, Mean: Table 7.1, plate 1
# From the text: MPP+(1-methyl-4-phenylpyridinium) is a known neurotoxin which acts by interfering with oxidative phosphorylation in mitochondria by inhibiting complex I, a protein in the membrane of mitochondria in dopaminergic neurons in the substantia nigra.(94) The inhibition of mitochondrial function leads to the depletion of ATP and eventual cell death. MPP+ ultimately causes Parkinsonism in primates by killing certain dopamine-producing neurons in the substantia nigra.
# iCell DOPA neurons are neural floor plate-derived midbrain dopaminergic neurons generated from human induced pluripotent stem cells (iPSCs). Dopaminergic neurons, specifically those located in the floor plate-derived midbrain are implicated in neurological disorders such as Parkinson's disease, MSA and DLBD among others. […] The iCellDopa neurons were supplied from FUJIFILM Cellular Dynamics.
# (§9) Procedure. iCell DOPA neurons were thawed and cultured following the provider's instructions in Brainphys medium+provided supplements+1% N2 supplement (Stemcell Technologies)+penicillin/streptomycin+Laminin. They were plated at 20000 cells per well of a 384 well plate (pre-coated with poly-D-lysine and Laminin) in 70 μL of growth medium. Cells were incubated at 37° ° C./5% CO2 in a humidified cell culture incubator. Half of the culture medium was changed twice a week.
# (§10) MPP+-induced neurotoxicity: 24 hours after neuronal plating, half of the medium was removed and the test compounds were applied with MPP+ treatment, both concentrated at 4×, were added to the wells. For each well, five aliquots were added, corresponding columns A-E in Table 3. In each row, either the compound indicated dissolved in its vehicle noted in Table 2 was added, or only a vehicle was added as indicated. Column E is an indicator of whether MPP+ was added. If not, only the medium was added.
# (§11) For the evaluation of conditions 8, 10,12, 22, 24, Neurite outgrowth was followed for subsequent 48 hours using an Incucyte Zoom platform with one phase contrast image every 4 hours, using a 20× objective. After 48 hours, the medium containing test compounds and MPP+ was removed and replaced by fresh medium containing a fluorescent cytolysis marker (red fluorescence) and a live cell marker (green fluorescence). For the evaluation of conditions 10, 12, 24, 38, 40, 51-53, Neurite outgrowth was followed similarly for subsequent 72 hours after MPP+ was added.
# Assay endpoints and data analysis. Phase contrast images were analyzed at each time point to determine the neurite length and number of branch points per mm^2. Kinetic data was plotted and kinetics were normalized by subtracting the value of the first data point (at time of treatment), allowing to measure changes in neurite outgrowth only from the onset of the treatment, starting at zero. Area Under Curve (AUC) of kinetic data was obtained and used for plotting compound's effects and perform statistical analyzes.
# [5] = test system: human dopaminergic neurons (iCell DopaNeurons); experiment: MPP+-induced neurotoxicity: cytolysis of iCell DopaNeurons; type: cell-based; conditions: with MPP+ 100 μM
# Protocol: Three different measurements were made in the experiments. Neurite length in mm was measured, which is a measure of increase in dendril length of neurons. […] Secondly, neurite branching was measured. […] Thirdly, cytolysis of the cells was measured. […] Experimental conditions were measured relative to the results of healthy cells in the studies.
# as §9, §10, §11
# Data was normalized to control conditions as there is basal cytolysis in the cell culture after thawing.
# HD patients = conditions: up to 15 g/day; cited from earlier work
# G93A transgenic ALS mice = conditions: mouse, in vivo; cited from earlier work
# [6] = test system: iPSC-derived dopaminergic (DA) neurons harboring triplication of the α-synuclein locus; experiment: α-Synuclein triplication cell line: neurofilament heavy chain signal intensity; type: cell-based, human; conditions: normalized to Hoechst signal; three months treatment; PBA 500 μM, TUDCA 50 μM, EXD 100 nM
# Protocol: We used 12 replicas for each experimental condition and 16 replicas for control (untreated cells). […] Cells were washed three times with warm phosphate buffered saline (PBS) and imaged immediately at 20× magnification on an imageXpress Micro confocal at 37° C. and 5% CO2.
# Following imaging, cells were immediately fixed with 4% paraformaldehyde for 30 minutes at room temperature, washed three times with PBS, permeabilized with 0.2% Triton X-100 for 30 minutes, blocked with Odyssey Blocking Buffer for 60 minutes, and incubated overnight at 4° C. with primary antibodies, neurofilament (1:1000, Synaptic Systems 171 002) and LB509 (1:100, Abcam ab27766). Cells were washed 3× with 0.1% Tween-20 in PBS and incubated with Alexa Fluor Goat Anti-Rabbit 790 (1:1000) and Goat Anti-Mouse 647 (1:1000) for 1 hour at RT, before washing 3× with 0.1% Tween-20 in PBS and imaging with Sapphire Biomolecular Imager. Neurofilament heavy chain signal intensity was normalized to fixed Hoechst signal measured with Spectra Gemini plate reader (ex=350 nm, em=461 nm), using Hoechst 33342 nucleic acid stain from Invitrogen according to the manufacturer's instructions. Neurofilaments (NF) are located mostly in axons and indicate roughly the content of neurites. If neurodegeneration is halted or reversed, NF signal increases because it correlates with the number and/or length of neurites in the well.
# Alzheimer's disease = conditions: cited from earlier work
# [7] = compared with […] distilled water in presence of LPS and ATP
# [8] = Table 7.2, plate 1, with MPP+ 100 μM, 72 hours
SMILES,"CXCL1/GROα in supernatant, Mean ± S.D. [1]","CXCL1/GROα in supernatant, Replicate 1 [1]","CXCL1/GROα in supernatant, Replicate 2 [1]","CXCL1/GROα in supernatant, Replicate 3 [1]",Effect on IL-1B concentration (in words) (IL-1B),"TNF-α in supernatant, Mean ± S.D. [2]","TNF-α in supernatant, Replicate 1 [2]","TNF-α in supernatant, Replicate 2 [2]","TNF-α in supernatant, Replicate 3 [2]","Effect on TNF-α concentration (in words) [2, 7]","IL-6 in supernatant, Mean ± S.D. [3]","IL-6 in supernatant, Replicate 1 [3]","IL-6 in supernatant, Replicate 2 [3]","IL-6 in supernatant, Replicate 3 [3]","Effect on IL-6 concentration (in words) [3, 7]","Neurite length, Mean ([4]; with MPP+ 100 μM, 72 hours)","Neurite Branching, Mean ± S.D. [4, 8]","Cytolysis, Mean ± S.D. ([5]; Table 9.1, plate 1)",also measured
CC(C)(O)c1coc(S(=O)(=O)NC(=O)Nc2c3c(cc4c2CCC4)CCC3)c1 [MCC950],469.39 ± 82.91 pg/mL,375.70 pg/mL,499.15 pg/mL,533.31 pg/mL,significantly decreased,30.95 ± 2.25 pg/mL,29.44 pg/mL,29.87 pg/mL,33.53 pg/mL,significantly decreased,256.48 ± 40.04 pg/mL,253.54 pg/mL,297.91 pg/mL,218.00 pg/mL,significantly decreased,–,–,–,–
"O=C([O-])CCCc1ccccc1.[Na+] [PBA, Sodium 4-phenylbutyrate]",495.79 ± 122.99 pg/mL,627.29 pg/mL,383.60 pg/mL,476.49 pg/mL,–,33.46 ± 1.75 pg/mL,32.67 pg/mL,35.47 pg/mL,32.24 pg/mL,–,355.23 ± 45.97 pg/mL,396.23 pg/mL,363.94 pg/mL,305.53 pg/mL,–,1681.1 mm/mm^2,46742.8 ± 7107.5 per mm^2,72.06 ± 1.77%,"Increase of number of branch points compared with MPP+ alone (control/MPP+) ([4]; AUC, MPP+ 100 μM): 89%; Protective effect on neurite length and branching (in words) ([4]; MPP+ 100 μM): much less protective effect than combination 8; Neurite length - Baseline-corrected AUC (0-72 h), Mean ([4]; Table 5.1, plate 1, with MPP+ 100 μM): 853.7 mm/mm^2; Number of branch points per mm^2 - Baseline-corrected AUC (0-72 h), Mean ([4]; Table 5.2, plate 1, with MPP+ 100 μM): 41712.8 per mm^2; Safety and tolerability (HD patients): safe and well-tolerated; Decrease of TNF-α concentration [2, 7]: 44%; Survival (G93A transgenic ALS mice): significantly extended survival; Neurofilament Heavy Chain signal intensity, mean [6]: 1.088; Decrease of IL-6 concentration [3, 7]: 49%"
"CC(C)[C@H](NC(=O)c1ccc2ccccc2n1)C(=O)N[C@@H](CC(=O)O)C(=O)COc1c(F)cccc1F [PCI/MPP+, Q-VD-OPh]",–,–,–,–,–,–,–,–,–,–,–,–,–,–,–,1301.0 mm/mm^2,38456.3 ± 11570.7 per mm^2,65.56 ± 1.89%,"Neurite length, Mean ± S.D. ([4]; Table 8.1, plate 2, with MPP+ 100 μM, 72 hours): 1430.1 ± 321.7 mm/mm^2; Neurite Branching, Mean ± S.D. ([4]; Table 8.2, plate 2, with MPP+ 100 μM, 72 hours): 52610.1 ± 16660.1 per mm^2; Cytolysis, Mean ± S.D. ([5]; Table 9.2, plate 2): 67.93 ± 3.52%"
CCOC(=O)C1=CCCC[C@H]1S(=O)(=O)Nc1ccc(F)cc1Cl [TAK-242],37.76 ± 6.05 pg/mL,35.76 pg/mL,32.96 pg/mL,44.55 pg/mL,significantly decreased,5.63 ± 0.00 pg/mL,<5.63 pg/mL,<5.63 pg/mL,<5.63 pg/mL,significantly decreased,10.47 ± 0.00 pg/mL,<10.47 pg/mL,<10.47 pg/mL,<10.47 pg/mL,significantly decreased,–,–,–,"Effect on GROα concentration (in words) [1, 7]: significantly decreased"
"Cc1cn(-c2cc(NC(=O)c3ccc(C)c(Nc4nccc(-c5cccnc5)n4)c3)cc(C(F)(F)F)c2)cn1 [nilotinib, Nilotinib]",–,–,–,–,–,–,–,–,–,–,–,–,–,–,–,–,–,–,Hippocampal volume loss attenuated (Alzheimer's disease; at 12 months): −27%; Safety (Alzheimer's disease; in vivo): safe
